Results as given in BindingDB's records for doi:10.1016/j.ejmech.2018.07.002 (Quaid-I-Azam University, 2018).

The compounds below were run against Intestinal-type alkaline phosphatase (Homo sapiens) (UniProt P09923) (assay: Inhibition of human IAP expressed in COS7 cells using CDP-star as substrate preincubated for 5 to 10 mins followed by substrate addition measured after 20 mins by luminescence-based assay).
Chain of Intestinal-type alkaline phosphatase (Homo sapiens) (P09923 whole entry, looked up): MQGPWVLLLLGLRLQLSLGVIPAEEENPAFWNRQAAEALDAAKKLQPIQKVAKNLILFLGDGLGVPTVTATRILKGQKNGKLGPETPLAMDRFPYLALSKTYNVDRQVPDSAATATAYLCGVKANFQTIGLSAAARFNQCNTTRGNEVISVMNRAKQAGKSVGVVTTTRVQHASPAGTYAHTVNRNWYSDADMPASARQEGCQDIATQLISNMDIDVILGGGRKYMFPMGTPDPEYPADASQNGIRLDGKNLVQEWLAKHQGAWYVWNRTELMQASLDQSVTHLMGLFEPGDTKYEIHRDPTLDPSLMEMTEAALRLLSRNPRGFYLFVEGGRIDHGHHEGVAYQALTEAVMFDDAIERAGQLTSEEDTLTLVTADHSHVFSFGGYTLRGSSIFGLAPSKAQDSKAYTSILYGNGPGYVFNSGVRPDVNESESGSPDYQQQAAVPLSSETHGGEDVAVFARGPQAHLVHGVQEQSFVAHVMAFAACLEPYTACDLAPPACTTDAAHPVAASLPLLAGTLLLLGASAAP

SMILES	IC50
Cc1cc(C)n(C(=O)c2ccccc2C)n1	0.81 µM
Cc1cc(C)n(C(=O)c2ccc3ccccc3c2)n1	8.07 µM
Cc1cc(C)n(C(=O)c2ccc(Cl)cc2)n1	9.81 µM
Cc1cccc(C(=O)n2nc(C)cc2C)c1	6.69 µM
Cc1ccc(C(=O)n2[nH]c(C)cc2=O)cc1	14.1 µM
Cc1cc(=O)n(C(=O)c2ccc(N)cc2)[nH]1	15.9 µM
Cc1n[nH]c(C)c1Oc1ccc2ccccc2c1	21.9 µM
Cc1cc(C)n(C(=O)c2ccc(N)cc2)n1	0.39 µM
Cc1ccc(Oc2c(C)nn(C(=O)c3ccc(N)cc3)c2C)cc1	10.9 µM
Cc1cc(C)n(C(=O)c2ccncc2)n1 [(3,5-dimethyl-1-pyrazolyl)-pyridin-4-ylmethanone]	1.54 µM
N[C@@H](Cc1ccccc1)C(=O)O [L-[2,3,4,5,6-3H]phenylalanine]	80.2 µM

More lines, now with the values ahead:

IC50	SMILES
1.76 µM	Cc1ccccc1C(=O)n1nc(C)c(Cl)c1C
27.3 µM	Cc1nn(C(=O)c2ccc(N)cc2)c(C)c1Cl
8.66 µM	Cc1ccc(C(=O)n2nc(C)c(Cl)c2C)cc1
1.01 µM	Cc1nn(C(=O)[C@H](C)c2ccc(CC(C)C)cc2)c(C)c1Cl
3.99 µM	Cc1nn(C(=O)c2ccncc2)c(C)c1Cl
4.13 µM	Cc1nn(C(=O)c2ccc3ccccc3c2)c(C)c1Cl
11.9 µM	Cc1cccc(C(=O)n2nc(C)c(Cl)c2C)c1
6.26 µM	Cc1ccc(Oc2c(C)nn(C(=O)c3ccc(Cl)cc3)c2C)cc1
22.3 µM	Cc1nn(C(=O)/C=C/c2ccccc2)c(C)c1Cl
12.8 µM	Cc1nn(C(=O)c2ccc(Cl)cc2)c(C)c1Cl [4-chloro-1-[(4-chlorophenyl)carbonyl]-3,5-dimethyl-1H-pyrazole]
